From patent US20230159445A1, “STAT INHIBITORY COMPOUNDS AND COMPOSITIONS” (JANPIX LIMITED, priority 2020, published 2023)

What was measured:
[1] = system: normal human fibroblast (NHF) cells; test: NHF Cell Cytotoxicity Assay (CellTiter-Blue, 72 h), off-target effects; assay type: cell-based; conditions: Homo sapiens, Fibroblast; pooled NHF cells
Method: In some embodiments, the off-target effects of the compounds are evaluated in healthy human cells, such as in a normal human fibroblast (NHF) cell cytotoxicity assay.
Cell viability was examined following treatment at various concentrations of inhibitor (0.097656-50 μM) using a cell Titer-Blue cell viability assay. 1×10^4 normal human fibroblast cells per well were plated in 96-well assay plates in culture medium. All cells are grown in DMEM, IMDM and RPMI-1640 were supplemented with 10% FBS. After 24 hours, test compounds and vehicle controls are added to appropriate wells so the final volume was 100 μl in each well. The cells are cultured for the desired test exposure period (72 hours) at 37° C. and 5% CO2. The assay plates are removed from 37° C. incubator and 20 μL/well of CellTiter-Blue® Reagent is added. The plates are incubated using standard cell culture conditions for 1-4 hours and the plates are shaken for 10 seconds and record fluorescence at 560/590nm. For each sample well, value is normalized between the DMSO control and the highest concentration in case of plateau, and converted into a percentage. In the absence of plateau, minimum lecture is obtained from a different sample within the same experiment. For each concentration, the four replicates are averaged and standard deviation calculated. Data is fitted to a log(inhibitor) vs response curve with variable slope model using Microsoft Excel, obtaining IC50 and Hill slope variables.
A person skilled in the art would appreciate that a higher IC50 value in this NHF assay can indicate lower off-target effects.

glutathione (GSH) = test: Reactivity Profiling with Glutathione (GSH), half-life by HPLC; conditions: 5 mM glutathione (GSH) in IMDM with 10% FBS
MV4-11 cells = test: MV4-11 Cell Cytotoxicity Assay (CellTiter-Blue, 72 h); assay type: cell-based, human; conditions: Homo sapiens, MV4-11; MV-4-11 cells
How it was run: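 Viability read-out: CellTiter-Blue, 1 h, fluorescence 560/590 nm. Preceded by 72 h exposure (37° C, 5% CO2) to twofold dilution series from 50 μM, triplicate, 0.5% DMSO vehicle, applied 24 h after plating.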

Structure (SMILES) | IC50 [1] | half-life at 25 μM (glutathione (GSH)) | IC50 (MV4-11 cells)
COc1cc(C(=O)O)ccc1N(Cc1cc(C2CC2)cc(C(C)(C)C)c1)C(=O)CN(Cc1ccc(Cl)cc1)S(=O)(=O)c1c(F)c(F)c(F)c(F)c1F [Compound 1016, 4-(N-(3-(tert-butyl)-5-cyclopropylbenzyl)-2-(N-(4-chlorobenzyl)-(2,3,4,5,6-pentafluorophenyl)sulfon-amido)acetamido)-3-methoxybenzoic acid] | 20 to 30 µM | 4.12 to 9.23 h | 316 to 1000 nM
CN(C)c1cc(C(=O)O)ccc1N(Cc1cc(C2CC2)cc(C(C)(C)C)c1)C(=O)CN(Cc1ccc(Cl)cc1)S(=O)(=O)c1c(F)c(F)c(F)c(F)c1F [Compound 1041, 4-(N-(3-(tert-butyl)-5-cyclopropylbenzyl)-2-(N-(4-chlorobenzyl)-(2,3,4,5,6-pentafluorophenyl)sulfon-amido)acetamido)-3-(dimethylamino)benzoic acid] | 20 to 30 µM | 9.23 to 1670 h | 316 to 1000 nM
COc1cc(C(=O)O)ccc1N(Cc1cc(C2CC2)cc(C(C)(C)C)c1)C(=O)CN(Cc1ccccc1F)S(=O)(=O)c1c(F)c(F)c(F)c(F)c1F [Compound 1061, 4-(N-(3-(tert-butyl)-5-cyclopropylbenzyl)-2-(N-(2-fluorobenzyl)-(2,3,4,5,6-pentafluoro-phenyl)sulfonamido)acetamido)-3-methoxybenzoic acid] | 10 to 20 µM | 2.37 to 4.12 h | 0.01 to 316 nM
CC(C)(C)c1cc(CN(C(=O)CN(Cc2ccccc2F)S(=O)(=O)c2c(F)c(F)c(F)c(F)c2F)c2ccc(C(=O)O)cc2OC2CC2)cc(C2CC2)c1 [Compound 1062, 4-(N-(3-(tert-butyl)-5-cyclopropylbenzyl)-2-(N-(2-fluorobenzyl)-(2,3,4,5,6-pentafluoro-phenyl)sulfonamido)acetamido)-3-cyclopropoxybenzoic acid] | 10 to 20 µM | 9.23 to 1670 h | 0.01 to 316 nM
COc1cc(C(=O)O)ccc1N(Cc1cc(C2CC2)cc(C(C)(C)C)c1)C(=O)CN(Cc1c(F)c(F)c(F)c(F)c1F)S(=O)(=O)c1c(F)c(F)c(F)c(F)c1F [Compound 1066, 4-(N-(3-(tert-butyl)-5-cyclopropylbenzyl)-2-(N-((perfluorophenyl)methyl)-(2,3,4,5,6-pentafluoro-phenyl)sulfonamido)acetamido)-3-methoxybenzoic acid] | 0.001 to 10 µM | 4.12 to 9.23 h | 0.01 to 316 nM
COc1cc(C(=O)O)ccc1N(Cc1cc(C2CC2)cc(C(C)(C)C)c1)C(=O)CN(Cc1ccccc1C#N)S(=O)(=O)c1c(F)c(F)c(F)c(F)c1F [Compound 1075, 4-(N-(3-(tert-butyl)-5-cyclopropylbenzyl)-2-(N-(2-cyanobenzyl)-(2,3,4,5,6-pentafluorophenyl)sulfon-amido)acetamido)-3-methoxybenzoic acid] | 10 to 20 µM | 0.00167 to 2.37 h | 0.01 to 316 nM
COc1cc(C(=O)O)ccc1N(Cc1cc(C2CC2)cc(C(C)(C)C)c1)C(=O)CN(Cc1ccncc1F)S(=O)(=O)c1c(F)c(F)c(F)c(F)c1F [Compound 1078, 4-(N-(3-(tert-butyl)-5-cyclopropylbenzyl)-2-(N-((3-fluoropyridin-4-yl)methyl)-(2,3,4,5,6-pentafluoro-phenyl)sulfonamido)acetamido)-3-methoxybenzoic acid] | 0.001 to 10 µM | 0.00167 to 2.37 h | 316 to 1000 nM
COc1cc(C(=O)O)ccc1N(Cc1cc(C2CC2)cc(C(C)(C)C)c1)C(=O)CN(Cc1c(F)cc(F)cc1F)S(=O)(=O)c1c(F)c(F)c(F)c(F)c1F [Compound 1081] | 0.001 to 10 µM | 4.12 to 9.23 h | 0.01 to 316 nM
COc1cc(C(=O)O)ccc1N(Cc1cc(C2CC2)cc(C(C)(C)C)c1)C(=O)CN(Cc1ccccc1C(F)(F)F)S(=O)(=O)c1c(F)c(F)c(F)c(F)c1F [Compound 1087, 4-(N-(3-(tert-butyl)-5-cyclopropylbenzyl)-2-(N-(2-(trifluoromethyl)benzyl)-(2,3,4,5,6-pentafluoro-phenyl)sulfonamido)acetamido)-3-methoxybenzoic acid] | 20 to 30 µM | 4.12 to 9.23 h | 0.01 to 316 nM
CC(C)(C)c1cc(CN(C(=O)CN(Cc2ccccc2F)S(=O)(=O)c2c(F)c(F)c(F)c(F)c2F)c2ccc(C(=O)O)cc2C2CC2)cc(C2CC2)c1 [Compound 1091, 4-(N-(3-(tert-butyl)-5-cyclopropylbenzyl)-2-(N-(2-fluorobenzyl)-(2,3,4,5,6-pentafluoro-phenyl)sulfonamido)acetamido)-3-cyclopropylbenzoic acid] | 0.001 to 10 µM | 4.12 to 9.23 h | 0.01 to 316 nM
CC(C)(C)c1cc(CN(C(=O)CN(Cc2ccccc2F)S(=O)(=O)c2c(F)c(F)c(F)c(F)c2F)c2ccc(C(=O)O)cc2C(F)(F)F)cc(C2CC2)c1 [Compound 1092, 4-(N-(3-(tert-butyl)-5-cyclopropylbenzyl)-2-(N-(2-fluorobenzyl)-(2,3,4,5,6-pentafluoro-phenyl)sulfonamido)acetamido)-3-(trifluoromethyl)benzoic acid] | 10 to 20 µM | 4.12 to 9.23 h | 0.01 to 316 nM
CC(C)(C)c1cc(CN(C(=O)CN(Cc2ccccc2F)S(=O)(=O)c2c(F)c(F)c(F)c(F)c2F)c2ccc(C(=O)O)cc2OC2CCCC2)cc(C2CC2)c1 [Compound 1094, 4-(N-(3-(tert-butyl)-5-cyclopropylbenzyl)-2-(N-(2-fluorobenzyl)-(2,3,4,5,6-pentafluoro-phenyl)sulfonamido)acetamido)-3-(cyclopentyloxy)benzoic acid] | 20 to 30 µM | 9.23 to 1670 h | 0.01 to 316 nM
COc1cc(C(=O)O)ccc1N(Cc1cc(C2CC2)cc(C(C)(C)C)c1)C(=O)CN(Cc1ncccc1C(F)(F)F)S(=O)(=O)c1c(F)c(F)c(F)c(F)c1F [Compound 1098, 4-(N-(3-(tert-butyl)-5-cyclopropylbenzyl)-2-(N-((3-(trifluoromethyl)pyridin-2-yl)methyl)-(2,3,4,5,6-pentafluoro-phenyl)sulfonamido)acetamido)-3-methoxybenzoic acid] | 20 to 30 µM | 2.37 to 4.12 h | 316 to 1000 nM
COCCOc1cc(C(=O)O)ccc1N(Cc1cc(C2CC2)cc(C2CC2)c1)C(=O)CN(Cc1ccc(F)cc1Cl)S(=O)(=O)c1c(F)c(F)c(F)c(F)c1F [Compound 1245, 4-(2-(N-(2-chloro-4-fluorobenzyl)-(2,3,4,5,6-pentafluorophenyl)sulfon-amido)-N-(3,5-dicyclopropylbenzyl)acetamido)-3-(2-methoxyethoxy)benzoic acid] | 0.001 to 10 µM | 2.37 to 4.12 h | 
O=C(O)c1ccc(N(Cc2nc(C3CC3)cc(C3CC3)n2)C(=O)CN(Cc2ccc(F)cc2Cl)S(=O)(=O)c2c(F)c(F)c(F)c(F)c2F)c(OC2CC2)c1 [Compound 1247, 4-(2-(N-(2-chloro-4-fluorobenzyl)-(2,3,4,5,6-pentafluorophenyl)sulfon-amido)-N-((4,6-dicyclopropylpyrimidin-2-yl)methyl)acetamido)-3-cyclopropoxybenzoic acid] | 10 to 20 µM | 2.37 to 4.12 h | 
CC(C)(C)c1cc(CN(C(=O)CN(Cc2ccc(F)cc2Cl)S(=O)(=O)c2c(F)c(F)c(F)c(F)c2F)c2ccc(C(=O)O)cc2O[C@H]2CCOC2)cc(C2CC2)c1 [Compound 1248, (S)-4-(N-(3-(tert-butyl)-5-cyclopropylbenzyl)-2-(N-(2-chloro-4-fluorobenzyl)-(2,3,4,5,6-pentafluorophenyl)sulfon-amido)acetamido)-3-((tetrahydrofuran-3-yl)oxy)benzoic acid] | 0.001 to 10 µM | 2.37 to 4.12 h | 
CC(C)(C)c1cc(CN(C(=O)CN(Cc2ccc(F)cc2Cl)S(=O)(=O)c2c(F)c(F)c(F)c(F)c2F)c2ccc(C(=O)O)cc2O[C@@H]2CCOC2)cc(C2CC2)c1 [Compound 1249, (R)-4-(N-(3-(tert-butyl)-5-cyclopropylbenzyl)-2-(N-(2-chloro-4-fluorobenzyl)-(2,3,4,5,6-pentafluorophenyl)sulfon-amido)acetamido)-3-((tetrahydrofuran-3-yl)oxy)benzoic acid] | 10 to 20 µM | 2.37 to 4.12 h | 
CC(C)COc1cc(C(=O)O)ccc1N(Cc1cc(C2CC2)cc(C2CC2)c1)C(=O)CN(Cc1ccc(F)cc1Cl)S(=O)(=O)c1c(F)c(F)c(F)c(F)c1F [Compound 1255, 4-(2-(N-(2-chloro-4-fluorobenzyl)-(2,3,4,5,6-pentafluorophenyl)sulfon-amido)-N-(3,5-dicyclopropylbenzyl)acetamido)-3-isobutoxybenzoic acid] | 10 to 20 µM | 9.23 to 1670 h | 
O=C(O)c1ccc(N(Cc2cc(C3CC3)cc(C3CC3)c2)C(=O)CN(Cc2ccc(F)cc2Cl)S(=O)(=O)c2c(F)c(F)c(F)c(F)c2F)c(OCC2COC2)c1 [Compound 1257, 4-(2-(N-(2-chloro-4-fluorobenzyl)-(2,3,4,5,6-pentafluorophenyl)sulfon-amido)-N-(3,5-dicyclopropylbenzyl)acetamido)-3-(oxetan-3-ylmethoxy)benzoic acid] | 10 to 20 µM | 0.00167 to 2.37 h | 
